Assays:
Assay in all cases: Determination of transcriptional activity (GAL4-PPAR LBD chimera, PLAP reporter, CV-1 cells)
Type in all cases: cell-based
PPARα = target: T1, PPARα (Homo sapiens, UniProt Q07869); conditions: GAL4-human PPARα LBD (167-468) chimera, PLAP activity 24 hours after addition of compound
T1 construct: human PPAR167-468 (PPARa); expressed in transfected cells; host or cells: CV-1 (ATCC CCL-70)
T1 sequence (Q07869 167-468): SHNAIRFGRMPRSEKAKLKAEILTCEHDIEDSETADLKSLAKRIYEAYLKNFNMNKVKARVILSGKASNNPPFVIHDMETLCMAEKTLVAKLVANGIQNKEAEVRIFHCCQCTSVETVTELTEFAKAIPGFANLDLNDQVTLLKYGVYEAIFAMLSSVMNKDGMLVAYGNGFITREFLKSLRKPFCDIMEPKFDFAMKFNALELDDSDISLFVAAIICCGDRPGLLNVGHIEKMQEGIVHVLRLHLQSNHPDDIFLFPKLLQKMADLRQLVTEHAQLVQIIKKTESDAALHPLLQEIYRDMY
Excerpt: (§1) Determination of Transcriptional Activity
(§2) (1) Test Method: A GAL4-PPAR LBD chimera expression vector was constructed by ligating human PPAR167-468 (PPARa), 138-440 (NUC-1) and 174-475 (PPARg) amino acid regions (LBD: Ligand Binding Domain) to a yeast transcriptional factor GAL4 1-147 amino acid region. As the reporter gene, PLAP (Placental Alkaline Phosphatase) was used, and this was ligated downstream of a TK promoter containing a 5-copy GAL4 DNA binding element to construct a vector. As host cells, CV-1 (ATCC CCL-70) were used. That is, CV-1 cells were spread at a density of 5×10^5 cells on a 35-mm dish and cultured in 10% FCS/DMEM for 24 hours, and using FuGENE 6 transfection reagent, the cells were co-transfected with the GAL4-PPAR LBD expression vector and GAL4 DBD-TK-PLAP expression vector. Twentyfour hours after this transfection, the cells were spread again on a 96-well plate at a density of 1×10^4/well and further cultured for 24 hours. After 24 hours, the medium was exchanged with DMEM containing 10% FCS, which was previously treated at 65° C. for inactivating intrinsic alkaline phosphatase, and a test compound was added at an arbitrary concentration. The transcriptional activity was determined in terms of PLAP activity secreted 24 hours after addition of the compound, to calculate EC50. The PLAP activity was determined after adding […] and incubating the mixture at room temperature for 1 hour.

PPARβ = target: T2, PPARβ (Homo sapiens, UniProt Q03181); conditions: GAL4-human NUC-1 LBD (138-440) chimera, PLAP activity 24 hours after addition of compound
T2 construct: 138-440 (NUC-1); expressed in transfected cells; host or cells: CV-1 (ATCC CCL-70)
T2 sequence (Q03181 138-440): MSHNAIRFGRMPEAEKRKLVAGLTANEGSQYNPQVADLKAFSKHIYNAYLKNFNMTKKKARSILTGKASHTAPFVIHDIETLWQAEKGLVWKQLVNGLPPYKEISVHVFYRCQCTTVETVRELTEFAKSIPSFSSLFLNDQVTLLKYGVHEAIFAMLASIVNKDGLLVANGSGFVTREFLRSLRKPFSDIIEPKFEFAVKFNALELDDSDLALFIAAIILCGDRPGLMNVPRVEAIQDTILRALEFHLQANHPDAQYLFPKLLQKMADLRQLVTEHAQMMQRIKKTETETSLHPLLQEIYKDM
Excerpt: as §1, §2

PPARγ = target: T3, PPARγ (Homo sapiens, UniProt P37231); conditions: GAL4-human PPARγ LBD (174-475) chimera, PLAP activity 24 hours after addition of compound
T3 construct: 174-475 (PPARg); expressed in transfected cells; host or cells: CV-1 (ATCC CCL-70)
T3 sequence (P37231 204-505): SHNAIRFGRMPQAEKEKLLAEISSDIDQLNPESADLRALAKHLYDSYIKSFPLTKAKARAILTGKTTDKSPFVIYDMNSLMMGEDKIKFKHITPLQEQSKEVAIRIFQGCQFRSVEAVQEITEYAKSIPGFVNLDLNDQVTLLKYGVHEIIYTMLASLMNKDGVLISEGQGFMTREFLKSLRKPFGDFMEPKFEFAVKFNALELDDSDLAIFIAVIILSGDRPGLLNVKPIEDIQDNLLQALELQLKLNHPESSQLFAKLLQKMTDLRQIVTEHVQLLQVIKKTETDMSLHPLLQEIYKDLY
Excerpt: as §1, §2

Structure (SMILES) | EC50 (PPARα) [nM] | EC50 (PPARβ) [nM] | EC50 (PPARγ) [nM]
COc1ccc(CC2(C(=O)O)CCCO2)cc1CNC(=O)c1ccc(OC2CCCC2)cc1Cl (stereo not drawn) [Ex. 5, 2-(3-{[(2-Chloro-4-cyclopentyloxybenzoyl)amino]methyl}-4-methoxybenzyl)tetrahydro-2-furancarboxylic acid] | 15 | 1320 | 40
CCCOc1ccc(C(=O)NCc2cc(CC3(C(=O)O)CCCO3)ccc2OC)c(Cl)c1 (stereo not drawn) [Ex. 1, 2-(3-{[(2-Chloro-4-propoxybenzoyl)amino]methyl}-4-methoxybenzyl)tetrahydro-2-furancarboxylic acid] | 28 | 533 | 56
COc1ccc(CC2(C(=O)O)CCCO2)cc1CNC(=O)c1ccc(C2CCCCC2)cc1Cl (stereo not drawn) [Ex. 6, 2-(3-{[(2-Chloro-4-cyclohexylbenzoyl)amino]methyl}-4-methoxybenzyl)tetrahydro-2-furancarboxylic acid] | 11 | 1210 | 78

More lines, now with the values ahead:

EC50 (PPARα) [nM] | EC50 (PPARβ) [nM] | EC50 (PPARγ) [nM] | Structure (SMILES)
54 | 771 | 37 | CCCOc1ccc(C(=O)NCc2cc(CC3(C(=O)O)C=CCO3)ccc2OC)c(Cl)c1 (stereo not drawn) [Ex. 49, 2-(3-{[(2-Chloro-4-propoxybenzoyl)amino]methyl}-4-methoxybenzyl)-2,5-dihydro-2-furancarboxylic acid]
13 | 38 | 5 | CCCOc1ccc(C(=O)NCc2cc(CC3(C(=O)O)CCCO3)ccc2OCC)c(Cl)c1 (stereo not drawn) [Ex. 73, 2-(3-{[(2-Chloro-4-propoxybenzoyl)amino]methyl}-4-ethoxybenzyl)tetrahydro-2-furancarboxylic acid]
92 | 234 | 40 | CCOc1ccc(C(=O)NCc2cc(CC3(C(=O)O)CCCO3)ccc2OCC)c(Cl)c1 (stereo not drawn) [Ex. 72, 2-(3-{[(2-Chloro-4-ethoxybenzoyl)amino]methyl}-4-ethoxybenzyl)tetrahydro-2-furancarboxylic acid]

Source: US7371777B2, “Cyclic compound and PPAR agonist” (Eisai Co., Ltd., priority 2001, dated 2008)
